Laboratory results reported in patent publication US8722894B2, “1,3-disubstituted-4-phenyl-1H-pyridin-2-ones” (Janssen Pharmaceuticals, Inc., priority 2007, dated 2014).

Experiments:
human mGluR2 receptor = target: T1, human mGluR2 receptor (Homo sapiens, UniProt Q14416); assay: [35S]GTPγS binding assay (GTPγS-PAM), membranes from cells transfected with the human mGluR2 receptor; format: biochemical; details: in presence of mGluR2 agonist glutamate at a predetermined EC25 concentration; CHO-cell membranes; averages of duplicate values of 11-concentration response curves; pEC50 = -logEC50; read-out: GTPgS - hR2 PAM pEC50 (converted)
T1 construct: expressed in transfected cells; host or cells: CHO cells
Description: The [^35S]GTPγS binding assay is a functional membrane-based assay used to study G-protein coupled receptor (GPCR) function whereby incorporation of a non-hydrolysable form of GTP, [^35S]GTPγS (guanosine 5′-triphosphate, labelled with […] ^35S), is measured. The G-protein α subunit catalyzes the exchange of guanosine 5′-diphosphate (GDP) by guanosine triphosphate (GTP) and on activation of the GPCR by an agonist, [^35S]GTPγS, becomes incorporated and cannot be cleaved to continue the exchange cycle (Harper (1998) Current Protocols in Pharmacology 2.6.1-10, John Wiley & Sons, Inc.). […] Here we describe the use of the [^35S]GTPγS binding assay using membranes from cells transfected with the human mGluR2 receptor and adapted from Schaffhauser et al ((2003) Molecular Pharmacology 4:798-810) for the detection of the positive allosteric modulation (PAM) properties of the compounds of this invention.
CHO-cells were cultured to pre-confluence and stimulated with 5 mM butyrate for 24 hours, prior to washing in PBS, and then collection by scraping in homogenisation buffer (50 mM Tris-HCl buffer, pH 7.4, 4° C.). Cell lysates were homogenized briefly (15 s) using an ultra-turrax homogenizer. The homogenate was centrifuged at 23 500×g for 10 minutes and the supernatant discarded. The pellet was resuspended in 5 mM Tris-HCl, pH 7.4 and centrifuged again (30 000×g, 20 min, 4° C.). The final pellet was resuspended in 50 mM HEPES, pH 7.4 and stored at −80° C. in appropriate aliquots before use. Protein concentration was determined by the Bradford method (Bio-Rad, USA) with bovine serum albumin as standard.
Measurement of mGluR2 positive allosteric modulatory activity of test compounds in membranes containing human mGluR2 was performed using frozen membranes that were thawed and briefly homogenised prior to pre-incubation in 96-well microplates (15 μg/assay well, 30 minutes, 30° C.) in assay buffer (50 mM HEPES pH 7.4, 100 mM NaCl, 3 mM MgCl2, 50 μM GDP, 10 μg/ml saponin,) with increasing concentrations of positive allosteric modulator (from 0.3 nM to 50 μM) and either a minimal pre-determined concentration of glutamate (PAM assay), or no added glutamate. For the PAM assay, membranes were pre-incubated with glutamate at EC25 concentration, i.e. a concentration that gives 25% of the maximal response glutamate, and is in accordance to published data (Pin et al. (1999) Eur. J. Pharmacol. 375:277-294). […] Filters were then air-dried, and 40 μl of liquid scintillation cocktail (Microscint-O) was added to each well, and membrane-bound [^35S]GTPγS was measured in a 96-well scintillation plate reader (Top-Count, Perkin-Elmer, USA). Non-specific [^35S]GTPγS binding is determined in the presence of cold 10 μM GTP. […]

T1 sequence (Q14416 19-872): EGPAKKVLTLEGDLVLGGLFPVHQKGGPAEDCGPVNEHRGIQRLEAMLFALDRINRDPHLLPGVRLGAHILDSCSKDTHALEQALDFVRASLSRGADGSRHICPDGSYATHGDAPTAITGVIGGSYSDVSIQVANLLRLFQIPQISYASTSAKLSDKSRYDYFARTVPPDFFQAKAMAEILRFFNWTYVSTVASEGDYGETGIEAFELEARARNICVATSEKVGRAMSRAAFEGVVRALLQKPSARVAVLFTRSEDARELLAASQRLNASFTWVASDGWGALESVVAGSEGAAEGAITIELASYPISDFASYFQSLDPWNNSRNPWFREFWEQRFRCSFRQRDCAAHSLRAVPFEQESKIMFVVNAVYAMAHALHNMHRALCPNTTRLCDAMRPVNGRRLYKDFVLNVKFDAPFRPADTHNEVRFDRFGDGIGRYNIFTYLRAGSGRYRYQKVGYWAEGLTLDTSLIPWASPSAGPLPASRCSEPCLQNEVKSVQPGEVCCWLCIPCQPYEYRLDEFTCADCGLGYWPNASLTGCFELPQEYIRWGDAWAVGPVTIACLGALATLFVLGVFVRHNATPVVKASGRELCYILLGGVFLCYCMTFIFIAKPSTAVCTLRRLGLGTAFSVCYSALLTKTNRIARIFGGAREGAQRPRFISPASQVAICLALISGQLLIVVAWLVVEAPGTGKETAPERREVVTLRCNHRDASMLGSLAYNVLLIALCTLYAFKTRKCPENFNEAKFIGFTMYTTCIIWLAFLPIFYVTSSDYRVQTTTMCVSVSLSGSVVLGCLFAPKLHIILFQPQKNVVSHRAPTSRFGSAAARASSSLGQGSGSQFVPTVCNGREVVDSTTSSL

melting point [°C]	EC50 (human mGluR2 receptor) [µM]	Structure (SMILES)
173	0.813	O=c1c(Cl)c(-c2ccc(NC3CCOCC3)c(C(F)(F)F)c2)ccn1CC1CC1 [Compound 5]
227.4	0.0398	CCCCn1ccc(-c2ccc(NC3CCC(C)(O)CC3)c(Cl)c2)c(Cl)c1=O (centres unmarked) [Compound 7]
231	0.575	O=c1c(Cl)c(-c2ccc(NC3CCOCC3)c(Cl)c2)ccn1CC1CC1 [Compound 6]
154	0.275	O=c1c(Cl)c(-c2ccc(OC3CCOCC3)c(Cl)c2)ccn1CCC1CC1 [Compound 4]
